Literature values as cited in patent US20140073698A1 (Aventis Pharma S.A., priority 2011, published 2014).

Details: @pH=1; simulation input

Reference Log D: 3.16
SMILES: CC(C(=O)O)c1cccc(C(=O)c2ccccc2)c1 (stereo not shown) [Ketoprofen, 2-(3-benzoylphenyl)propionic acid]
